Patent EP0497303B1, “Carbamic acid derivatives and method for preparing the same” (KYORIN PHARMACEUTICAL CO., LTD., priority 1991, dated 1992)

Test system: amnesia induced by exposure to carbon dioxide gas
Experiment: Action against amnesia induced by exposure to carbon dioxide gas (step-through passive avoidance)
Assay type: in vivo, Std: ddy strain male mice
Conditions: for Reaction latency(sec) Mean±S.E: orally immediately after exposure to carbon dioxide gas and one hour before retention trial, retention trial after 24 hours, maximum 300 seconds; for Rate of improvement (%): orally, relative to CO2 treated and non-treated groups
Text: The apparatus used was a passive avoidance apparatus of a step-through type (made by O'Hara Co., Ltd.). In the aquisition trial, each mouse was placed in the light compartment, a guillotine door of partition thereof was opened after 10 seconds, the guillotine door was closed as soon as the mouse moved into the dark compartment and an electric shock of 33 - 50 v was given for 1 second through the metal grid bars of the floor. Immediately after the electric shock was given, the mouse was taken out and was accommodated in a container having volume of ca. 300 ml filled with carbon dioxide gas. After immediately exposed to carbon dioxide gas having flow rate of ca. 5 liter/min. for 25 - 45 seconds, the mouse was taken out and was reanimated by artificial breathing. The retention trial was carried out after 24 hours. In the retention trial, the mouse was again placed in the light compartment, the time till the movement to the dark compartment was measured as a reaction latency until maximum 300 seconds and the mouse showing latency beyond it was deemed as 300 seconds. In addition, immediately after aquisition trial, a group not to exposed to carbon dioxide gas (comparison group of non-amnesia) was also made. The mouse was grouped per 10 - 30, the subject medicament was orally administered immediately after exposed to carbon dioxide gas and one hour before the retention trial. Rate of improvement =(Latency of CO2 -drug treated group - Latency of carbon dioxide exposed group)/(Latency of non-dementia group - Latency of carbon dioxide exposed group)x 100 [formula]

Question: Which results are given for `CN1CCCC(OC(=O)Nc2ccccc2)C1` (centres unmarked) [Compound A, 3-(1-methylpiperidinyl) phenylcarbamate]?
Answer: Reaction latency(sec) Mean±S.E (Dose 100 mg/kg): 175.3 ± 36.7 s; Rate of improvement (%) (Dose 100 mg/kg): 15.2%

Question: What does the source list for `O=C(Nc1ccc(Cl)cc1)OC1CCN(c2ccncc2)CC1` [Example 2]?
Answer: Reaction latency(sec) Mean±S.E (Dose 10 mg/kg): 150.7 ± 27.1 s; Rate of improvement (%) (Dose 10 mg/kg): 42.9%; Reaction latency(sec) Mean±S.E (Dose 30 mg/kg): 231.2 ± 19.0 s; Rate of improvement (%) (Dose 30 mg/kg): 76.8%

Question: Which results are given for `O=C(Nc1ccc(Cl)cc1)OC1CCCN(c2ccncc2)C1` (centres unmarked) [Example 49]?
Answer: Reaction latency(sec) Mean±S.E (Dose 10 mg/kg): 154.0 ± 27.2 s; Reaction latency(sec) Mean±S.E (Dose 30 mg/kg): 183.7 ± 26.3 s; Rate of improvement (%) (Dose 30 mg/kg): 45.3%

Question: Which results are given for `C1=Cc2cccc(OCC3CNCCO3)c2C1` (centres unmarked) [Indeloxazine]?
Answer: Reaction latency(sec) Mean±S.E (Dose 40 mg/kg): 219.3 ± 17.8 s; Rate of improvement (%) (Dose 40 mg/kg): 30.1%; improving activity to disturbance of memory (summary in words of Table 1): vitiated or not enough

Question: Which “Reaction latency(sec) Mean±S.E” value (Dose 5 mg/kg) does the source give for `COC(=O)C1=C(C)NC(C)=C(C(=O)OCCN(C)Cc2ccccc2)C1c1cccc([N+](=O)[O-])c1` (centres unmarked) [Nicardipine] here?
Answer: 92.9 ± 28.1 s

Question: And the “Rate of improvement (%)” value (Dose 5 mg/kg)?
Answer: -59.8%
